# Key:
# [1] = system: Bibionidae; conditions: chronic/long-term; duration: 28 days; development
# [2] = system: Pimephales promelas
# [3] = system: Anas platyrhynchos; conditions: oral, mortality
# [4] = system: Apis mellifera; conditions: acute; oral; unspecified; mortality
# [5] = system: Daphnia magna; conditions: chronic/long-term; duration: 21 days
# [6] = system: Tagia sp.; conditions: acute, duration: 14 days
# [7] = system: Typhlodromus pyri; conditions: chronic/long-term; mortality
# [8] = system: Colinus virginianus
# [9] = system: Folsomia candida; conditions: chronic/long-term; duration: 28 days; mortality
# [10] = system: Rattus norvegicus
# [11] = system: Typhlodromus pyri; assay: LR50; higher = less toxic; conditions: not reported; mortality
# [12] = reproduction developmental, reproduction
structure (smiles),measurement,setting,value
CC1(C)[C@H](C(=O)O[C@H](C#N)c2cccc(Oc3ccccc3)c2)[C@@H]1/C=C\C(=O)OC(C(F)(F)F)C(F)(F)F [Acrinathrin],NOEC,[1],3.1e-05 mg/L
same,LC50,"[2]; acute, duration: 96 hours, mortality",1.7 ng/mL
same,NOEC,"[2]; chronic/long-term, duration: 21 days",1.1e-05 mg/L
same,LD50,"[3]; acute, unspecified",> 2000 mg/kg-day
same,NOEC,"[3]; short-term, feed",173 mg/kg-day
same,LD50,[4],0.077 µg/piece
same,NOEC,[5],3.2e-06 mg/L
same,NOEC,[6],1.6 mg/kg
same,LC50,[6]; mortality,> 1000 mg/kg
same,NOEC,[7],0.00068 g/ha
same,LD50,"[8]; acute, oral, mortality",> 2250 mg/kg-day
same,NOEC,[8]; [12],19.9 mg/kg-day
same,NOEC,"[8]; short-term, oral, diet, mortality",325 mg/kg-day
same,NOEC,[9],< 1 mg/kg
same,NOAEL,"[10]; acute, neurology",1 mg/kg-day
same,LD50,"[10]; acute, oral, mortality",> 5000 mg/kg-day
same,NOAEL,[10]; [12],9.4 mg/kg-day
same,NOEL,[10]; [12],2.5 mg/kg-day
same,LR50,[11],0.006 g/ha

# Source: EPA's ToxValDB 9.5 (doi:10.2903/j.efsa.2010.1872)
